Source: PubChem BioAssay AID248 (DTP/NCI, 2004)
Several values for one entry are separate records, joined by “and”; a condition that tells them apart may be missing. Identical values can stand only once. Inconclusive results and toxic doses are left out.

Test system: L1210 leukemia ip in BDF1 mice, survival T/C
Test: NCI In Vivo Anticancer Drug Screen. Data for tumor model L1210 Leukemia (intraperitoneal) in B6D2F1 (BDF1) mice
Conditions: endpoint: mean survival time, higher = longer survival
Procedure, shortened: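 Antitumor effect is assessed in tumor-bearing animals. Survival in the compound arm is compared with a vehicle-dosed control arm and expressed as their quotient.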

[1] = dose: 100.0 mg/kg/injection, schedule: Q01DX009 (ip), vehicle: saline with Tween-80
[2] = dose: 200.0 mg/kg/injection, schedule: Q01DX009 (ip), vehicle: saline with Tween-80
[3] = dose: 100.0 mg/kg/injection, schedule: Q01DX001 (ip), vehicle: carboxymethylcellulose (CMC)
[4] = dose: 400.0 mg/kg/injection, schedule: Q01DX001 (ip), vehicle: carboxymethylcellulose (CMC)
[5] = dose: 100.0 mg/kg/injection, schedule: Q01DX001 (ip), vehicle: saline
[6] = dose: 200.0 mg/kg/injection, schedule: Q01DX001 (ip), vehicle: saline
[7] = dose: 400.0 mg/kg/injection, schedule: Q01DX001 (ip), vehicle: saline
[8] = dose: 100.0 mg/kg/injection, schedule: Q04DX003 (ip), vehicle: Klucel (hydroxypropylcellulose) (HPC)
[9] = dose: 200.0 mg/kg/injection, schedule: Q04DX003 (ip), vehicle: Klucel (hydroxypropylcellulose) (HPC)
[10] = dose: 100.0 mg/kg/injection, schedule: Q01DX009 (ip), vehicle: Klucel (hydroxypropylcellulose) (HPC)
[11] = dose: 200.0 mg/kg/injection, schedule: Q01DX009 (ip), vehicle: Klucel (hydroxypropylcellulose) (HPC)
[12] = dose: 400.0 mg/kg/injection, schedule: Q04DX003 (ip), vehicle: Klucel (hydroxypropylcellulose) (HPC)
[13] = dose: 400.0 mg/kg/injection, schedule: Q01DX009 (ip), vehicle: Klucel (hydroxypropylcellulose) (HPC)
[14] = dose: 100.0 mg/kg/injection, schedule: Q04DX003 (ip), vehicle: saline with Tween-80
[15] = dose: 200.0 mg/kg/injection, schedule: Q04DX003 (ip), vehicle: saline with Tween-80

With CC(=O)Nc1ccc(NC(=O)Nc2ccc(C)cc2)cc1 the T/C (dose: 50.0 mg/kg/injection, schedule: Q01DX009 (ip), vehicle: saline with Tween-80) was 90 % of control, the T/C [1] was 90 % of control and the T/C [2] was 90 % of control.
With NNC(=O)CNc1ccc(F)cc1Cl the T/C (dose: 100.0 mg/kg/injection, schedule: Q04DX002 (ip), vehicle: Klucel (hydroxypropylcellulose) (HPC)) was 101 % of control and the T/C (dose: 200.0 mg/kg/injection, schedule: Q04DX002 (ip), vehicle: Klucel (hydroxypropylcellulose) (HPC)) was 105 % of control.
O=NN(CCCl)C(=O)Nc1ccccc1NC(=O)N(CCCl)N=O was tested, and the T/C (dose: 4.0 mg/kg/injection, schedule: Q01DX001 (ip), vehicle: carboxymethylcellulose (CMC)) was 122 % of control.
For Cc1ccc(C(=O)c2ccccc2)c(C)c1, the T/C [3] was 86 % of control and the T/C [4] was 92 % of control.
For Nc1nc(N)c(N=Nc2ccc(S(=O)(=O)Nc3ccccn3)cc2)c(=O)[nH]1, the T/C [5] was 94 % of control, the T/C [6] was 94 % of control and the T/C [7] was 94 % of control.
For CC(C)C(NC(=O)CI)C(=O)Nc1ccc(C(=O)O)c(O)c1 (stereo not drawn), the T/C [8] was 108 % of control and the T/C [9] was 94 % of control.
With CCOc1c(/C=N/NC(=O)c2ccccc2OC)cccc1OC the T/C [10] was 116 % of control, the T/C [8] was 102 % of control and the T/C [11] was 95 % of control. For the same compound, the T/C [9] was 105 % of control and the T/C [12] was 107 % of control.
With COc1ccc(OC)c(/C=C/c2ccc(NC(=O)C(Cl)(Cl)Cl)cc2)c1 the T/C [10] was 98 % of control, the T/C [11] was 93 % of control and the T/C [13] was 102 % of control.
CCCCCCCCCCOP1(=O)C=C(C)CC1 (stereo not drawn) was tested, and the T/C [14] was 93 % of control and the T/C [15] was 93 % of control.
For O=C(O)c1cc2ccc(O)cc2oc1=O, the T/C [3] was 94 % of control, the T/C (dose: 200.0 mg/kg/injection, schedule: Q01DX001 (ip), vehicle: carboxymethylcellulose (CMC)) was 94 % of control and the T/C [4] was 97 % of control.
In the case of CC1(C)N=C(N)N=C(N)N1c1cccc(CCCCOc2ccccc2)c1, the T/C (dose: 6.25 mg/kg/injection, schedule: Q04DX003 (ip), vehicle: saline with Tween-80) is reported as 101 % of control, the T/C (dose: 12.5 mg/kg/injection, schedule: Q04DX003 (ip), vehicle: saline with Tween-80) is reported as 106 % of control and the T/C (dose: 25.0 mg/kg/injection, schedule: Q04DX003 (ip), vehicle: saline with Tween-80) is reported as 95 % of control.
In the case of BrC1C2CC(c3ccccc32)C1Br (stereo not drawn), the T/C [1] is reported as 101 % of control, the T/C [14] is reported as 94 % of control and the T/C [2] is reported as 91 % of control. For the same compound, the T/C [15] was 93 % of control, the T/C (dose: 400.0 mg/kg/injection, schedule: Q01DX009 (ip), vehicle: saline with Tween-80) was 98 % of control and the T/C (dose: 400.0 mg/kg/injection, schedule: Q04DX003 (ip), vehicle: saline with Tween-80) was 95 % of control.
With CCCCC1=NCCc2c1cc1c([nH]c3ccccc31)c2C the T/C (dose: 100.0 mg/kg/injection, schedule: Q04DX003 (ip), vehicle: saline) was 96 % of control and the T/C (dose: 200.0 mg/kg/injection, schedule: Q04DX003 (ip), vehicle: saline) was 95 % of control.
In the case of Cc1cc2c(cc1C)N(C(=O)CN1CCOCC1)CC(=O)N2, the T/C (dose: 50.0 mg/kg/injection, schedule: Q01DX009 (ip), vehicle: acetone) is reported as 95 % of control, the T/C (dose: 100.0 mg/kg/injection, schedule: Q01DX009 (ip), vehicle: acetone) is reported as 88 % of control and the T/C (dose: 100.0 mg/kg/injection, schedule: Q04DX003 (ip), vehicle: acetone) is reported as 98 % of control. For the same compound, the T/C (dose: 200.0 mg/kg/injection, schedule: Q01DX009 (ip), vehicle: acetone) was 95 % of control, the T/C (dose: 200.0 mg/kg/injection, schedule: Q04DX003 (ip), vehicle: acetone) was 97 % of control and the T/C (dose: 400.0 mg/kg/injection, schedule: Q04DX003 (ip), vehicle: acetone) was 92 % of control.
In the case of CN1CN(c2ccccc2)C2(CCN(Cc3ccccc3)CC2)C1=O, the T/C [5] is reported as 101 % of control, the T/C [6] is reported as 101 % of control and the T/C [7] is reported as 103 % of control.
For Nc1nc2ncc(CNc3ccc(C(=O)NC(CCC(=O)O)C(=O)O)cc3F)nc2c(=O)[nH]1 (stereo not drawn), the T/C (dose: 50.0 mg/kg/injection, schedule: Q01DX001 (ip), vehicle: saline) was 109 % of control and the T/C [5] was 105 % of control.
CO[C@]12[C@@H](COC(=O)NCCO)C3=C(C(=O)C(C)=C(N)C3=O)N1C[C@@H]1[C@H]2N1C (stereo partly drawn) was tested, and the T/C (dose: 75.0 mg/kg/injection, schedule: Q01DX001 (ip), vehicle: saline) was 112 % of control.
In the case of Cc1ccccc1/[N+]([O-])=C/c1ccccc1, the T/C (dose: 100.0 mg/kg/injection, schedule: Q01DX001 (ip), vehicle: Klucel (hydroxypropylcellulose) (HPC)) is reported as 104 % of control, the T/C [8] is reported as 103 % of control and the T/C (dose: 200.0 mg/kg/injection, schedule: Q01DX001 (ip), vehicle: Klucel (hydroxypropylcellulose) (HPC)) is reported as 104 % of control. For the same compound, the T/C [11] was 93 % of control, the T/C [9] was 102 % of control and the T/C (dose: 400.0 mg/kg/injection, schedule: Q01DX001 (ip), vehicle: Klucel (hydroxypropylcellulose) (HPC)) was 101 % of control. The T/C [13] was 104 % of control and the T/C [12] was 102 % of control.
In the case of COc1ccc(NN=Nc2ccccc2C#N)cc1, the T/C [8] is reported as 106 % of control, the T/C [9] is reported as 100 % of control and the T/C [12] is reported as 108 % of control.
With CCCCOc1ccc(OC(=O)Nc2ccc(C(=O)OCC)cc2)cc1 the T/C [10] was 98 % of control, the T/C [11] was 95 % of control and the T/C [13] was 97 % of control.
In the case of CCCCCCCCCCCCSC1CC(=O)N(c2ccccc2)C1=O (stereo not drawn), the T/C (dose: 37.5 mg/kg/injection, schedule: Q04DX003 (ip), vehicle: other) is reported as 99 % of control and 109 % of control, the T/C (dose: 50.0 mg/kg/injection, schedule: Q01DX001 (ip), vehicle: other) is reported as 98 % of control and 101 % of control and 104 % of control and the T/C (dose: 75.0 mg/kg/injection, schedule: Q04DX003 (ip), vehicle: other) is reported as 86 % of control and 89 % of control. For the same compound, the T/C (dose: 100.0 mg/kg/injection, schedule: Q04DX002 (ip), vehicle: other) was 95 % of control and 89 % of control, the T/C (dose: 100.0 mg/kg/injection, schedule: Q04DX003 (ip), vehicle: other) was 103 % of control and the T/C (dose: 150.0 mg/kg/injection, schedule: Q04DX003 (ip), vehicle: other) was 86 % of control and 88 % of control. The T/C (dose: 200.0 mg/kg/injection, schedule: Q04DX002 (ip), vehicle: other) was 89 % of control and 92 % of control, the T/C (dose: 200.0 mg/kg/injection, schedule: Q04DX003 (ip), vehicle: other) was 97 % of control and the T/C (dose: 400.0 mg/kg/injection, schedule: Q04DX002 (ip), vehicle: other) was 96 % of control and 89 % of control. The T/C (dose: 400.0 mg/kg/injection, schedule: Q04DX003 (ip), vehicle: other) was 94 % of control.
In the case of CN=C(NC)c1ccc(NC(=O)CCc2ccc(C(=O)Nc3ccc(C(=NC)NC)cc3)cc2)cc1, the T/C (dose: 0.75 mg/kg/injection, schedule: Q01DX Z (ip), vehicle: carboxymethylcellulose (CMC)) is reported as 94 % of control, the T/C (dose: 1.5 mg/kg/injection, schedule: Q01DX Z (ip), vehicle: carboxymethylcellulose (CMC)) is reported as 90 % of control and the T/C (dose: 3.0 mg/kg/injection, schedule: Q01DX Z (ip), vehicle: carboxymethylcellulose (CMC)) is reported as 93 % of control. For the same compound, the T/C (dose: 6.0 mg/kg/injection, schedule: Q01DX Z (ip), vehicle: carboxymethylcellulose (CMC)) was 113 % of control, the T/C (dose: 10.5 mg/kg/injection, schedule: Q01DX Z (ip), vehicle: carboxymethylcellulose (CMC)) was 168 % of control and the T/C (dose: 50.0 mg/kg/injection, schedule: Q01DX Z (oral), vehicle: carboxymethylcellulose (CMC)) was 101 % of control. The T/C (dose: 100.0 mg/kg/injection, schedule: Q01DX Z (oral), vehicle: carboxymethylcellulose (CMC)) was 105 % of control, the T/C (dose: 200.0 mg/kg/injection, schedule: Q01DX Z (oral), vehicle: carboxymethylcellulose (CMC)) was 103 % of control and the T/C (dose: 400.0 mg/kg/injection, schedule: Q01DX Z (oral), vehicle: carboxymethylcellulose (CMC)) was 94 % of control.
With N#CCC(CC#N)C(c1cccc2ccccc12)c1cccc2ccccc12 the T/C (dose: 75.0 mg/kg/injection, schedule: Q04DX002 (ip), vehicle: Klucel (hydroxypropylcellulose) (HPC)) was 94 % of control, the T/C (dose: 150.0 mg/kg/injection, schedule: Q04DX002 (ip), vehicle: Klucel (hydroxypropylcellulose) (HPC)) was 101 % of control and the T/C (dose: 300.0 mg/kg/injection, schedule: Q04DX002 (ip), vehicle: Klucel (hydroxypropylcellulose) (HPC)) was 90 % of control.
In the case of O=C(O)/C=C/C(=O)NNC(=O)/C=C/C(=O)O, the T/C [14] is reported as 98 % of control and the T/C [15] is reported as 98 % of control.
With COc1ccc(C2=C(Br)C(=O)C(c3ccc(OC)cc3)=C(Br)C2=O)cc1 the T/C [8] was 94 % of control, the T/C [9] was 96 % of control and the T/C [12] was 98 % of control.
With CC(=O)Nc1ccc(NC(=O)Nc2ccccc2F)cc1 the T/C [10] was 98 % of control, the T/C [11] was 96 % of control and the T/C [13] was 102 % of control.
